The text below walks through data of US20200002432A1, “ANTI-CD98 ANTIBODIES AND ANTIBODY DRUG CONJUGATES” (AbbVie Inc., priority 2016, published 2020).

Experiment [1] deals with A549-FP3 human lung carcinoma xenograft. Briefly: A549 FP3 xenograft tumor growth inhibition in SCID-bg mice, with or without docetaxel. In kind it is in vivo, mouse. The note with it: QD × 1, Ab095 8 mg/kg IP, docetaxel 7.5 mg/kg IV, ADC 10 mg/kg IP, combination 7.5 + 10. On the procedure: (§1) The cell lines A549 and NCI-H460 were obtained from the American Type Culture Collection (ATCC, Manassas, Va.). A549 cell line was further passaged in mice as flank xenograft to improve xenograft tumor growth, resulting in the A549-FP3 line. Cells were cultured as monolayers in RPMI-1640 culture media (Invitrogen, Carlsbad, Calif.) supplemented with 10% Fetal Bovine Serum (FBS, Hyclone, Logan, Utah). To generate xenografts, 5×10^6 (A549 and NCI-H460) viable cells were inoculated subcutaneously into the right flank of immune deficient female SCID-bg mice (Charles River Laboratories, Wilmington, Mass.). The injection volume was 0.2 ml and composed of 1:1 S-MEM:Matrigel Matrigel (BD, Franklin Lakes, N.J.). Tumors were size matched at approximately 223 mm^3. Antibodies, conjugates, and docetaxel were formulated in 0.9% sodium chloride for injection. […] Therapy began within 24 hours after size matching of the tumors. Mice weighed approximately 21 g at the onset of therapy. Tumor volume was estimated two to three times weekly. Measurements of the length (L) and width (W) of the tumor were taken via electronic caliper and the volume was calculated according to the following equation: V=L×W^2/2. […] Eight mice were housed per cage. […] Tumor growth inhibition is calculated by 100*(1−Tv/Cv) where Tv and Cv are the mean tumor volumes of the treated and control groups, respectively.

In experiment [2] the test system is NCI-H460 human lung carcinoma xenograft. Description: NCI-H460 xenograft tumor growth inhibition in SCID-bg mice, with or without docetaxel. Type of experiment: in vivo, mouse. The note with it: QD × 1, Ab095 8 mg/kg IP, docetaxel 7.5 mg/kg IV, ADC 10 mg/kg IP, combination 7.5 + 10. The protocol: as §1

SMILES strings stand for the structures.

As for `CC(=O)O[C@@]12CO[C@@H]1C[C@H](O)[C@@]1(C)C(=O)[C@H](O)C3=C(C)[C@@H](OC(=O)[C@H](O)[C@@H](NC(=O)OC(C)(C)C)c4ccccc4)C[C@@](O)([C@@H](OC(=O)c4ccccc4)[C@H]21)C3(C)C` [Docetaxel, reference compound], in experiment [1], the “TGD (%)” value amounted to 80% and the “TGImax (%)” value stood at 62%. For the same compound, in experiment [2], the “TGD (%)” value is listed as 30% and the “TGImax (%)” value is listed as 35%.
